Measured values reported in US20250143306A1, “COMBINATION FOR IMPROVING PLANT GROWTH AND/OR YIELD, FORMULATION AND METHOD FOR INCREASING PLANT GROWTH, STRESS RESISTANCE, AND YIELDS, AND USE THEREOF” (INSTITUTE OF EXPERIMENTAL BOTANY CAS CR, V.V.I., priority 2022, published 2025).

Tests used:
[1] = system: wheat (Triticum aestivum) cv. Balitus; test: Root and shoot dry weight and total chlorophyll content of wheat under drought stress conditions (Example 2); format: in vivo
Experimental: To investigate the effect of the combinations on the weight parameters, and the total content of chlorophyll, seeds of wheat (Triticum aestivum) cv. Balitus were sown in a hydroponic growing system (Araponics, Liege, Belgium) using Hoagland's solution (control). Twenty days after sowing plants (except for control plants) were sprayed by either MTU (10 μM) or by nitrogen utilization enhancers alone or with a combination of MTU (10 μM) and nitrogen utilization enhancers. The plants were grown in a glasshouse at 20-28° C. under a combination of natural and artificial light. Since the treatment (20 days after sowing), the plants received low water doses. […] The root dry weight (RDW), shoot dry weight (SDW), and total chlorophyll content (TCC) of at least 25 plants were measured at the end of the experiment—45 days after the plants had been sown. RDW and SDW were recorded after drying the plants at 70° C. for 2 days. The chlorophyll content of each plant was measured by SPAD meter reading at the end of the experiment and TCC was calculated as SPAD value per SDW.

[2] = system: wheat (Triticum aestivum) cv. Balitus; test: Root and shoot dry weight and leaf nitrogen content of hydroponically grown wheat under optimal conditions (Example 1); format: in vivo
Experimental: To investigate the effect of the combinations on the weight parameters, the seeds of wheat (Triticum aestivum) cv. Balitus were sown in a hydroponic growing system (Araponics, Liege, Belgium) using Hoagland's solution (control). Twenty days after sowing, plants (except for control plants) were sprayed by aqueous solution of either MTU (10 μM) or by a nitrogen utilization enhancer alone or by a combination of MTU (10 μM) with the nitrogen utilization enhancer. The plants were grown in the Czech Republic in a glasshouse at 16-25° C. under natural and artificial light during the winter period. The root dry weight (RDW), shoot dry weight (SDW) and the nitrogen content in the leaves of at least 30 plants were measured 45 days after the plants had been sown. RDW and SDW were recorded after drying the plants at 70° C. for 2 days.

Compound | RDW % of control ([1]; concentration 100 mg/L) | RDW (root dry weight) ([1]; concentration 100 mg/L) [g] | SDW % of control ([1]; concentration 100 mg/L) | SDW (shoot dry weight) ([1]; concentration 100 mg/L) [g] | RDW % of control ([1]; concentration 250 mg/L) | RDW (root dry weight) ([1]; concentration 250 mg/L) [g] | SDW % of control ([1]; concentration 250 mg/L) | SDW (shoot dry weight) ([1]; concentration 250 mg/L) [g] | RDW % of control ([2]; concentration 100 mg/L) | RDW (root dry weight) ([2]; concentration 100 mg/L) [g] | SDW % of control ([2]; concentration 100 mg/L) | SDW (shoot dry weight) ([2]; concentration 100 mg/L) [g] | Nitrogen content in the leaves ([2]; concentration 250 mg/L) [weight %] | RDW % of control ([2]; concentration 250 mg/L) | RDW (root dry weight) ([2]; concentration 250 mg/L) [g] | SDW % of control ([2]; concentration 250 mg/L) | SDW (shoot dry weight) ([2]; concentration 250 mg/L) [g] | other results
O=C(O)CCC(=O)C(=O)O [2-oxoglutarate] | +11.9% | 0.75 | +10.7% | 1.35 | +16.4% | 0.78 | +14.8% | 1.4 | +8.8% | 0.87 | +5.3% | 1.60 | 4.67 | +13.8% | 0.91 | +8.6% | 1.65 | TCC % (total chlorophyll content) ([1]; concentration 100 mg/L): 107%; TCC % (total chlorophyll content) ([1]; concentration 250 mg/L): 112%
N[C@@H](CC(=O)O)C(=O)O [Aspartic acid, aspartic acid] |  |  |  |  | +14.9% | 0.77 | +3.3% | 1.26 |  |  |  |  | 4.53 | +15.0% | 0.92 | −1.3% | 1.50 | 
CCCCCC(=O)OCCN(CC)CC [DA6, diethyl aminoethyl hexanoate] |  |  |  |  |  |  |  |  |  |  |  |  |  |  |  |  |  | RDW % of control ([1]; concentration 20 mg/L): +13.4%; RDW (root dry weight) ([1]; concentration 20 mg/L): 0.76 g; SDW % of control ([1]; concentration 20 mg/L): +6.6%; SDW (shoot dry weight) ([1]; concentration 20 mg/L): 1.3 g; TCC % (total chlorophyll content) ([1]; concentration 20 mg/L): 110%; Nitrogen content in the leaves ([2]; concentration 25 mg/L): 4.53 weight %; RDW % of control ([2]; concentration 25 mg/L): +8.8%; RDW (root dry weight) ([2]; concentration 25 mg/L): 0.87 g; SDW % of control ([2]; concentration 25 mg/L): +5.9%; SDW (shoot dry weight) ([2]; concentration 25 mg/L): 1.61 g
NCCCC(=O)O [GABA, γ-aminobutyric acid] |  |  |  |  |  |  |  |  |  |  |  |  |  |  |  |  |  | Nitrogen content in the leaves ([2]; concentration 200 mg/L): 4.82 weight %; RDW % of control ([2]; concentration 200 mg/L): +5.0%; RDW (root dry weight) ([2]; concentration 200 mg/L): 0.84 g; SDW % of control ([2]; concentration 200 mg/L): +4.6%; SDW (shoot dry weight) ([2]; concentration 200 mg/L): 1.59 g
N[C@@H](CCC(=O)O)C(=O)O [Glutamic acid, glutamic acid] | +9.0% | 0.73 | +4.1% | 1.27 | +19.4% | 0.8 | +3.3% | 1.26 | +6.3% | 0.85 | +2.0% | 1.55 | 4.56 | +15.0% | 0.92 | +3.9% | 1.58 | 
C[N+](C)(C)CC(=O)[O-] [Glycine betaine, glycine betaine] |  |  |  |  |  |  |  |  |  |  |  |  |  |  |  |  |  | RDW % of control ([1]; concentration 5 g/L): +4.5%; RDW (root dry weight) ([1]; concentration 5 g/L): 0.70 g; SDW % of control ([1]; concentration 5 g/L): +7.4%; SDW (shoot dry weight) ([1]; concentration 5 g/L): 1.31 g; TCC % (total chlorophyll content) ([1]; concentration 5 g/L): 110%
CC(=O)N1CSCC1C(=O)O (centres unmarked) [NATCA, N-acetyl thiazolidine 4-carboxylic acid] | +11.9% | 0.75 | +9.8% | 1.34 |  |  |  |  | +12.5% | 0.9 | +7.2% | 1.63 |  |  |  |  |  | Nitrogen content in the leaves ([2]; concentration 100 mg/L): 4.77 weight %
O=C(O)[C@@H]1CCCN1 [Proline, proline] |  |  |  |  | +7.5% | 0.72 | +4.9% | 1.28 |  |  |  |  | 4.69 | +7.5% | 0.86 | +3.3% | 1.57 | 
OP(O)O [[PO3]^3−, phosphite] |  |  |  |  |  |  |  |  |  |  |  |  |  |  |  |  |  | RDW % of control ([1]; concentration 600 mg/L): +16.4%; RDW (root dry weight) ([1]; concentration 600 mg/L): 0.78 g; SDW % of control ([1]; concentration 600 mg/L): +8.2%; SDW (shoot dry weight) ([1]; concentration 600 mg/L): 1.32 g; TCC % (total chlorophyll content) ([1]; concentration 600 mg/L): 105%; Nitrogen content in the leaves ([2]; concentration 600 mg/L): 4.81 weight %; RDW % of control ([2]; concentration 600 mg/L): +18.8%; RDW (root dry weight) ([2]; concentration 600 mg/L): 0.95 g; SDW % of control ([2]; concentration 600 mg/L): +14.5%; SDW (shoot dry weight) ([2]; concentration 600 mg/L): 1.74 g
NC(=O)CC[C@H](N)C(=O)O [glutamine] | +10.4% | 0.74 | +7.4% | 1.31 | +16.4% | 0.78 | +11.5% | 1.36 | +10.0% | 0.88 | +5.3% | 1.60 | 4.59 | +12.5% | 0.90 | +6.6% | 1.62 | 
NCC(=O)O [glycine] | +7.5% | 0.72 | +5.7% | 1.29 | +13.4% | 0.76 | +11.5% | 1.36 | +5.0% | 0.84 | +5.9% | 1.61 | 4.64 | +7.5% | 0.86 | +8.6% | 1.65 | 
poly-γ-(glutamic acid) [γ-PGA] |  |  |  |  | +9.0% | 0.73 | +2.5% | 1.25 |  |  |  |  | 4.74 | +5.0% | 0.84 | +6.6% | 1.62 | TCC % (total chlorophyll content) ([1]; concentration 250 mg/L): 112%
